The text below walks through data of patent EP0201988A2, “Dihydropyridazinone derivatives” (SMITH KLINE & FRENCH LABORATORIES LIMITED, priority 1985, dated 1986).

The target in test [1] is PDE (Peak III). As to the kind of experiment: Inhibition of phosphodiesterases, PDE (Peak III) enzyme assay. It is filed as biochemical. The conditions noted are these: PDE (Peak III) from cat heart, 1 µM cyclic AMP. The method, then:
Sepharose is a registered trademark of Pharmacia Fine Chemicals Inc. The high-speed supernatant from a cat heart homogenate (2 g tissue in 20 ml 20 mM PiPES - (Piperazine-N-N'-bis[2-ethanesulfonic acid]), 50 mM Na acetate, pH 6.5) was applied to a 15 ^x 1.5 cm column of DEAE-Sepharose equilibrated with the homogenisation buffer. The PDE activities were eluted with a gradient of 0.05-1 M Na acetate in 20 mM PIPES.
The enzyme was assayed by incubation at 37° for 4-30 min in 50 mM Tris, 5 mM MgCl2, pH 7.5 with [3-H] cyclic nucleotide (4 ^x 10^5 disintegrations min-') and [14-C] nucleotide 5' monophosphate (3 ^x 10^3 disintegrations min^-1). The assay was stopped by boiling, and the [3-H] […] The reaction mixture was diluted with 0.5 ml 100 mM HEPES (N-2-Hydroxyethylpiperazine-N'-2-ethanesulfonic acid), 100 mM NaCl, pH 8.5, and applied to the column. The column was extensively washed with the same buffer, and the 5' nucleotide eluted with 6 ml 025 M acetic acid.

Test [2] relates to anaesthetised cats. As to the kind of experiment: Cardiac stimulant activity in vivo (anaesthetised cats). The conditions noted are these: anaesthetised cats pretreated with pempidine and propranolol, administered intravenously; for ED50: Felis catus, iv, read-out: ED50 (dose to increase left ventricular dp/dt max by 50%).
For test [3], the system named is ventricular strips. Description: Cardiac stimulant activity in vitro (electrically stimulated ventricular strips). It is filed as cell-based, Guinea pigs. The conditions noted are these: Cavia porcellus; guinea pig right ventricle strips, stimulated at 1.0 Hz, Krebs Henseleit solution at 37°C, concentration in the bathing fluid; read-out: EC50 (50% increase in the force of contraction of the ventricular strips). The method, then: The compounds of formula (I) and their pharmaceutically acceptable salts are tested for cardiac stimulant activity following a procedure based on that of S.C. Verma and J. H. McNeill (J.Pharm & Exp. Therapeutics, 200, 352-362 (1977)). Guinea pigs (500-700 g) of either sex are sacrificed and the hearts are quickly removed and transferred to a dissecting dish containing oxygenated bathing fluid. While in the bathing medium, the right ventricle is cut into two strips. The strips are each suspended in a 50 ml bath containing Krebs Henseleit solution at 37°C, and the bath is bubbled with 95% oxygen and 5% carbon dioxide. The ventricular strips are electrically stimulated at a frequency of 1.0 Hz, at double the threshold voltage. A resting tension of 1.0 g is applied to the strips and the tension is kept constant by readjustment during an equilibration period of 60 minutes. The bathing fluid is frequently changed during this period. When a steady base line is obtained, a compound under test is added to the bathing fluid and a cumulative concentration response curve is plotted.

For `Cc1[nH]c(=O)c(C#N)cc1-c1ccncc1` (single isomer, unassigned) [Milrinone], the 50% inhibitory concentration (IC50) (commonly the concentration at which inhibition is half-maximal) in test [1] was 2.2 µM.
In turn, `Nc1cc(-c2ccncc2)c[nH]c1=O` [Amrinone] yielded a concentration for half-maximal inhibition (IC50) in test [1] of 51.8 µM. Besides, in test [2], the ED50 was determined as 5.6 µmol/kg and the duration of activity result is reported as “short duration of activity”.
Molecule `CC1CC(=O)NN=C1c1ccc(NC2=NC(=O)CN2)cc1` (centres unmarked) [Example 1, 6-[4-(4-Oxo-2-imidazolin-2-ylamino)phenyl]-5-methyl-4,5-dihydro-3(2H)-pyridazinone] gave a half-maximal inhibitory concentration (IC50) in test [1] of 1.84 µM. Moreover, the EC50 in test [3] was found to be 14 µM. In test [2], the ED50 was 0.4 µmol/kg and the duration of activity entry is “long duration of activity”.
